Key:
[1] = test system: Canada thistle (Cirsium arvense); assay: Test L field study, Compound 1 and nicosulfuron; format: in vivo; conditions: Nicosulfuron 18 g a.i./ha, approximately 56 days after treatment
Description: (§1) This field study included treatments that consisted of Compound 1 and nicosulfuron alone and in combination on Canada thistle (Cirsium arvense) and daisy fleabane (Erigeron spp.). The plants ranged from 20 to 30 cm in height at the time of application during the month of May in the vicinity of Newark, Del. Compound 1 was formulated as a wettable powder containing 25% active ingredient by weight. Nicosulfuron was in the form of Accent® Herbicide, a water-dispersible granule formulation containing 75% active ingredient by weight. The formulations were dispersed in water in the sprayer tank before treatment. The treatments were made using a backpack sprayer calibrated to deliver 24 gallons per acre (224 L per hectare) to a 10 ft×30 ft (3 m×9 m) plot. Each treatment was replicated two times. The effects on the plants approximately 56 days after treatment were visually compared to untreated controls. Plant response ratings were calculated as the means of the two replicates, based on a scale of 0 to 100 where 0 is no effect and 100 is complete control. Colby's Equation was used to determine the herbicidal effects expected from the mixture.

[2] = test system: daisy fleabane (Erigeron spp.); assay: Test L field study, Compound 1 and nicosulfuron; format: in vivo; conditions: Nicosulfuron 18 g a.i./ha, approximately 56 days after treatment
Description: as §1

## COc1cc(OC)nc(NC(=O)NS(=O)(=O)c2ncccc2C(=O)N(C)C)n1 [Nicosulfuron, nicosulfuron, reference compound]
[1]
  Obsd. observed effect (0 to 100 scale): 15
[2]
  Obsd. observed effect (0 to 100 scale): 28

Reference: patent US8802597B2, “Herbicidal pyrimidines” (E I du Pont de Nemours and Company, priority 2003, dated 2014)
